Measurements from patent publication US4246413A, “6-Oxamorphinans” (priority 1979, dated 1981).

What was measured:
[1] = assay type: in vivo
[2] = oxymorphone-induced Straub tail test for antagonist activity; assay type: in vivo

| SMILES | Agonist Activity ED50, Mice (SC) [1] | Agonist Activity ED50, Mice (PO) ([1]; PO) | times as potent as morphine sulfate, orally ([1]; mice, oral, relative to morphine sulfate) | ED50 ([2]; sc, read-out: subcutaneous ED50, antagonist activity) | times the antagonist activity of butorphanol ([2]; subcutaneous, relative to butorphanol) |
| --- | --- | --- | --- | --- | --- |
| COc1ccc2c(c1)[C@]13CCN(C)[C@H](C2)[C@@H]1CC(C)(C)OC3.Cl (racemic) [BL-6028, 3-Methoxy-7,7,17-trimethyl-6-oxamorphinan Hydrochloride] | 0.053 mg/kg | – | – | – | – |
| CC1(C)C[C@H]2[C@H]3Cc4ccc(O)cc4[C@@]2(CCN3CC2CC2)CO1.Cl (racemic) [BL-6097, 17-Cyclopropylmethyl-7,7-dimethyl-3-hydroxy-6-oxamorphinan Hydrochloride] | 0.083 mg/kg | 0.35 mg/kg | about 8.9 times | 0.8 mg/kg | about 1.2 times |
| CN1CC[C@]23COC(C)(C)C[C@H]2[C@H]1Cc1ccc(O)cc13 (racemic) [BL-6092, 3-Hydroxy-7,7,17-trimethyl-6-oxamorphinan] | 0.038 mg/kg | – | – | – | – |
